Data taken from patent US20210269478A1, “ADJUVANT FOR CELL CULTURE” (FUKUSHIMA MEDICAL UNIVERSITY, priority 2018, published 2021).

B1: rJAM-C: polypeptide obtained by linking the Fc region of human IgG1 to the C-terminus of the extracellular domain (Met 1-Asn 241) of human JAM-C; Sino Biological (protein)
chain: EAVNLKSSNRNPVVHEFESVELSCIITDSQTSDPRIEWKKIQDGQTTYVYFDNKIQGDLAGRTDVFGKTSLRIWNVTRSDSAIYRCEVVALNDRKEVDEITIELIVQVKPVTPVCRIPAAVPVGKTATLQCQESEGYPRPHYSWYRNDVPLPTDSRANPRFQNSSFHVNSETGTLVFNAVHKDDSGQYYCIASNDAGAARCEGQDMEVYDLN

Assays:
[1] = test system: F9 cells expressing JAM-B and JAM-C; experiment: Cell adhesion assay, crystal violet staining of adhered F9 cells; type: cell-based; conditions: coating at 286 ng/cm^2 in 96-well dish; 30 min after adding cells; relative to vehicle defined as 1
Method: JAM-C D1 (286 ng/cm^2) was added to a 96-well plastic culture dish, then F9 stem cells were added thereto, and after 30 min the number of adhered cells was measured with crystal violet staining, while performing no coating as a negative control, and using type I collagen (1,430 ng/cm^2) and rJAM-C (1,430 ng/cm^2) as positive controls. The cell number was expressed as a relative value based on the value of the vehicle defined as 1. Error bar indicates standard deviation. Asterisk(s) indicate the result of the t-test; where * means P<0.05; and *** means P<0.001.
(§1) For each of recombinant soluble JAM-C (polypeptide obtained by linking the Fc region of human IgG1 to the C-terminus of the extracellular domain (Met 1-Asn 241) of human JAM-C; Sino Biological) and murine IgG (GE Healthcare), 20, 100, or 500 ng volume thereof was diluted in 50 μL PBS and disposed into a 96-well round-bottom plate, which was then left standing at 30° C. for 12 hours. As a positive control, 500 ng of collagen Cellmatrix type I-A (Nitta Gelatin Inc.) was processed in the same manner. […]
After washing twice with PBS, ADSCs were detached using a 0.25% trypsin/1 mM EDTA solution and inoculated to the above plate and cultured in a CO2 incubator at 37° C. for 30 min. […] Finally, 50 μL of 5% SDS was used for lysis, and the absorbance was measured at 560 nm wavelength. […]

[2] = test system: stem cell markers Klf4, Nanog, c-Myc, and Sox2 in ADSCs; experiment: Semi-quantitative RT-PCR of stem cell markers in ADSCs cultured on coated dish; type: cell-based, murine
Source text: The result was expressed as a relative value based on the value of mIgG defined as 1. Error bar indicates standard deviation. Asterisk(s) indicate the result of the t-test; where * means P<0.05; ** means P<0.01; and *** means P<0.001.
The result was expressed as a relative value with respect to the value of vehicle defined as 1. Error bar indicates standard deviation in three experiments. Asterisk(s) indicate the result of t-test; where * means P<0.05; ** means P<0.01; and *** means P<0.001.
RNA extraction and RT-PCR were performed using a common method previously described (Sugimoto, et al., PLoS One, 2013, 10: e751062013). […] Semi-quantitative PCR was performed using the GoTaq Green Master Mix Kit (Promega) and primers [Sox2 (5′-[…]-3′ (SEQ ID NO: 23), and 5′-[…]-3′ (SEQ ID NO: 24)); c-Myc (5′-[…]-3′ (SEQ ID NO: 25), and 5′-[…]-3′ (SEQ ID NO: 26)); Nanog (5′-[…]-3′ (SEQ ID NO: 27), and 5′-[…]-3′ (SEQ ID NO: 28)); Klf4 (5′-[…]-3′ (SEQ ID NO: 29), and 5′-[…]-3′ (SEQ ID NO: 30)); and Gapdh (5′-[…]-3′ (SEQ ID NO: 31), and 5′-[…]-3′ (SEQ ID NO: 32))] to amplify the target sequences. […] Then the brightness in a region corresponding to the molecular weight of interest was quantified using the ImageJ (National Institute of Health (NIH)) and statistically analyzed.

[3] = test system: ADSCs (adipose-derived stem cells); experiment: Cell proliferation assay, BrdU-positive divided by DAPI-positive cells; type: cell-based, murine
Method: The result was expressed as a relative value based on the value of mIgG defined as 1. Error bar indicates standard deviation. Asterisk(s) indicate the result of t-test; where * means P<0.05; ** means P<0.01; and *** means P<0.001.
The results are shown relative to the total cell number defined as 1. P-value was calculated by a chi-square test (n=353, n=501).
Cells (4×10^4 cells) were inoculated in a 6-well culture dish, and, 24 hours later, treated with 5-bromo-2′-deoxyuridine (BrdU; #B-5002, Sigma-Aldrich) at the final concentration of 10 μM for 2 hours, and then fixed with 4% PFA. Then, the sample was stained according to the method recommended by the manufacturer, and imaged with a fluorescent phase-contrast microscope (OLYMPUS IX71, Olympus Corporation) and a DP Controller. The number of BrdU-positive particles was divided by that of DAPI-positive ones to obtain a proliferated cell number.

[4] = test system: ADSCs (adipose-derived stem cells); experiment: Cell adhesion assay, crystal violet staining of adhered ADSCs; type: cell-based; conditions: coating at 20, 100, and 500 ng per well in 96-well plate; 30 min after adding cells; versus murine IgG control
Method: The rJAM-C, or murine IgG (mIgG) as a negative control (both in 20, 100, and 500 ng (57, 286, and 1,430 ng/cm^2, respectively)), and type I collagen (500 ng) as a positive control were added to a 96-well plastic culture dish, and then ADSCs were added. After 30 min, the number of adhered cells was measured by crystal violet staining, and the relative absorbance was measured. The absorbance was expressed by a relative absorbance based on the result of the vehicle defined as 1. Error bar indicates standard deviation. Asterisk(s) indicate the result of t-test; where * means P<0.05; and *** means P<0.001.
as §1
After washing twice with PBS, ADSCs were detached using a 0.25% trypsin/1 mM EDTA solution and inoculated to the above plate and cultured in a CO2 incubator at 37° C. for 30 min. […] Finally, 50 μL of 5% SDS was used for lysis, and the absorbance was measured at 560 nm wavelength.

| Molecule | adhesion of F9 cells (adhered cell number) [1] | expression of stem cell markers Nanog, Klf4, Sox2, and c-Myc ([2]; ADSCs in 6-well dish coated at 52 ng/cm^2, relative to vehicle defined as 1) | proliferation ability (BrdU-positive / DAPI-positive cells) ([3]; ADSCs in 6-well dish coated at 52 ng/cm^2, chi-square test) | adhesion of ADSCs (adherent cell number, relative absorbance) [4] | expression of stem cell markers Klf4, Nanog, c-Myc, and Sox2 ([2]; ADSCs in 12-well dish coated at 132 ng/cm^2, cultured 48 hours, relative to mIgG defined as 1) | proliferation ability (BrdU-positive / DAPI-positive cells) ([3]; ADSCs in 6-well dish coated at 104 ng/cm^2, relative to mIgG defined as 1) |
| --- | --- | --- | --- | --- | --- | --- |
| DPRIEWKKI [JAM-C D1] | significantly increased | significantly increased | significantly increased | – | – | – |
| B1 | – | – | – | significantly increased | significantly increased | about 2 fold |
